From patent US7815912B2, “Method of controlled ovarian hyperstimulation and pharmaceutical kit for use in such method” (Ares Trading, S.A., priority 2002, dated 2010)
Non-standard residues stand in square brackets, D forms with d. Residues, ends and D or L forms follow the SMILES beside them. d(hArg(Et2)) = CCN=C(NCC)NCCCC[C@@H](N)C(=O)O; hArg(Et2) = CCN=C(NCC)NCCCC[C@H](N)C(=O)O; dPhe(4-Cl) = N[C@H](Cc1ccc(Cl)cc1)C(=O)O; d2Nal = N[C@H](Cc1ccc2ccccc2c1)C(=O)O; dCit = NC(=O)NCCC[C@@H](N)C(=O)O; d3Pal = N[C@H](Cc1cccnc1)C(=O)O

Assays:
Assay type in all cases: in vivo, human
[1] = system: premature endogenous LH-surge; test: Examples 1 and 2 repeated using ganirelix instead of cetrorelix; details: 2.0 mg ganirelix instead of 2.0 mg cetrorelix
Source text: (§1) Although this treatment is suitable for all types of IVF patients (e.g. within the age range 18 to 45 years, with or without displaying polycystic ovarian syndrome and with or without a regular cycle), the following selection criteria are set forth in the investigation: healthy female partners of infertile couples; age at the time of screening between 20 and 39 years; a regular menstrual cycle, and willing to give a written informed consent. However, no special precautions concerning body weight or body mass index are taken.
(§2) Prior to the first administration of recombinant FSH a blood sample is taken for hormone analysis (estradiol and LH) and a standard urinary hCG assay is performed to exclude pregnancy. Recombinant FSH treatment is started at day 2 or 3 of menses by a daily subcutaneous injection until the day of hCG administration. During the first 5 days of recombinant FSH treatment the daily dose is fixed to 150 IU. […]
A subcutaneous injection with urinary hCG (10,000 IU) is administered, when at least three follicles exceed a diameter of 17 mm as measured by ultrasound scan and subsequently oocyte retrieval is performed typically 30-36 hours later. […]

IVF-patients = test: implantation and pregnancy rates after IVF and embryo transfer following COH
Source text: as §1
Prior to the first administration of recombinant FSH a blood sample is taken for hormone analysis (estradiol and LH) and a standard urinary hCG assay is performed to exclude pregnancy. Recombinant FSH treatment is started at day 2 or 3 of menses by a daily subcutaneous injection until the day of hCG administration. During the first 5 days of recombinant FSH treatment the daily dose is fixed to 150 IU. Starting at day 6, blood samples for hormone analysis are taken once every two days prior to drug administration and ultrasonographic monitoring of follicle growth is performed to adjust, if necessary, the daily injectable doses of recombinant FSH.
(§3) A subcutaneous injection with urinary hCG (10,000 IU) is administered, when at least three follicles exceed a diameter of 17 mm as measured by ultrasound scan and subsequently oocyte retrieval is performed typically 30-36 hours later.
Oocytes are retrieved from the human females that have undergone COH as set forth in example 1. The oocytes are subsequently fertilized in vitro and two days later no more than two embryos are transferred to the uterus of the patient. […] Lower implantation and pregnancy rates are obtained in IVF-patients, in whom premature LH surges are prevented by a daily dose of 0.25 mg cetrorelix.

[2] = system: premature endogenous LH-surge; test: open-label controlled clinical trial: premature endogenous LH-surge prevention in COH; details: daily subcutaneous 2.0 mg cetrorelix without recLH
Source text: as §1, §2, §3

[3] = system: women undergoing COH and subsequent IVF and ET; test: safety and tolerability in the clinical trial of COH with subsequent IVF and ET; details: daily subcutaneous 2.0 mg cetrorelix without recLH
Source text: as §1, §2, §3

[4] = daily 2.0 mg cetrorelix without co-administered recLH

Compound | results (LH-rise prevention, tolerability, implantation and pregnancy rates) compared with examples 1 and 2 [1] | implantation rates (rank among three treatment groups) (IVF-patients; daily 0.25 mg cetrorelix) | pregnancy rates (rank among three treatment groups) (IVF-patients; daily 0.25 mg cetrorelix) | implantation rates (rank among three treatment groups) (IVF-patients; [4]) | pregnancy rates (rank among three treatment groups) (IVF-patients; [4]) | efficacy in preventing a premature LH-rise ([2]; compared with 0.25 mg) | effectiveness in preventing a premature LH-rise in patients with bodyweight of more than 75 kg ([2]; IVF patients undergoing COH, bodyweight more than 75 kg) | adverse effects [3] | tolerability [3]
CCN=C(NCC)NCCCC[C@H](NC(=O)[C@H](CC(C)C)NC(=O)[C@@H](CCCCNC(=NCC)NCC)NC(=O)[C@H](Cc1ccc(O)cc1)NC(=O)[C@H](CO)NC(=O)[C@@H](Cc1cccnc1)NC(=O)[C@@H](Cc1ccc(Cl)cc1)NC(=O)[C@@H](Cc1ccc2ccccc2c1)NC(C)=O)C(=O)N1CCC[C@H]1C(=O)N[C@H](C)C(N)=O [ganirelix] (Ac-[d2Nal][dPhe(4-Cl)][d3Pal]SY[d(hArg(Et2))]L[hArg(Et2)]P[dA]-NH2) | very similar |  |  |  |  |  |  |  | 
CC(=O)N[C@H](Cc1ccc2ccccc2c1)C(=O)N[C@H](Cc1ccc(Cl)cc1)C(=O)N[C@H](Cc1cccnc1)C(=O)N[C@@H](CO)C(=O)N[C@@H](Cc1ccc(O)cc1)C(=O)N[C@H](CCCNC(N)=O)C(=O)N[C@@H](CC(C)C)C(=O)N[C@@H](CCCNC(=N)N)C(=O)N1CCC[C@H]1C(=O)N[C@H](C)C(N)=O [cetrorelix] (Ac-[d2Nal][dPhe(4-Cl)][d3Pal]SY[dCit]LRP[dA]-NH2) |  | Lower | Lower | lowest | lowest | more efficacious | especially apparent | no apparent adverse effects | well-tolerated
